Patent US10005792B2, “Aminoindane-, aminotetrahydronaphthalene- and aminobenzocyclobutane-derived PRMT5-inhibitors” (CTXT PTY LTD, priority 2014, dated 2018)
pIC50: −log10 of the molar value. Structures can show the parent of a compound that is named as a salt.

Each molecule was assayed against Full-length PRMT5 enzyme co-expressed with MEP50 (Homo sapiens (Human), UniProt O14744) (assay: Revised PRMT5 Biochemical Assay). Conditions: 1 μM histone H4 derived peptide substrate, 1 μM S-Adenosyl methionine, 4 hours at 37 degree Celsius, Transcreener EPIGEN fluorescence polarisation.
Procedure: Compounds of the invention may be tested for in vitro activity in the following assay: A histone H4 derived peptide is used as substrate (amino acid sequence: […]NH2). Full-length PRMT5 enzyme (NCBI Reference sequence NP-006100.2) was co-expressed with Hiss-MEP50 in insect cells and purified via Nickel immobilized metal affinity and gel filtration chromatography (“the enzyme”).
The 6 μL reactions are run in Greiner brand black 384-well low volume assay plates. All reactions contained assay buffer (phosphate buffered saline, 0.01% (v/v) Tween-20, 0.01% (w/v) albumin from chicken egg white, 1 mM Dithiothreitol, 1 μM peptide substrate, 1 μM S-Adenosyl methionine, and 15 ng/reaction enzyme, with the enzyme being omitted from negative control reactions. Compounds were added in a volume of 100 nL from dilution series prepared in DMSO, positive and negative control reactions receiving the same volume DMSO without compound. The plates were sealed with adhesive seals and incubated for 4 hours at 37 degree Celsius. Reaction progress was measured using the Transcreener™ EPIGEN methyltransferase assay (BellBrook Labs, Madison, Wis.) as recommended by the manufacturer. To each reaction 2 μL detection mix were added, containing coupling enzymes, fluorescence polarisation tracer, and AMP antibody. Plates were incubated for 90 minutes before being read on a PerkinElmer EnVision™ plate reader in fluorescence polarisation mode. IC50 values were obtained from the raw readings by calculating percent inhibition (% I) for each reaction relative to controls on the same plate (% I=(I−CN)/(CP−CN) where CN/CP are the averages of the negative/positive reactions, respectively), then fitting the % I data vs. compound concentration [I] to % I=([…]) where A is the lower asymptote, B is the upper asymptote, C is the IC50 value, and D is the slope.

Full-length PRMT5 enzyme co-expressed with MEP50, sequence (O14744 whole entry): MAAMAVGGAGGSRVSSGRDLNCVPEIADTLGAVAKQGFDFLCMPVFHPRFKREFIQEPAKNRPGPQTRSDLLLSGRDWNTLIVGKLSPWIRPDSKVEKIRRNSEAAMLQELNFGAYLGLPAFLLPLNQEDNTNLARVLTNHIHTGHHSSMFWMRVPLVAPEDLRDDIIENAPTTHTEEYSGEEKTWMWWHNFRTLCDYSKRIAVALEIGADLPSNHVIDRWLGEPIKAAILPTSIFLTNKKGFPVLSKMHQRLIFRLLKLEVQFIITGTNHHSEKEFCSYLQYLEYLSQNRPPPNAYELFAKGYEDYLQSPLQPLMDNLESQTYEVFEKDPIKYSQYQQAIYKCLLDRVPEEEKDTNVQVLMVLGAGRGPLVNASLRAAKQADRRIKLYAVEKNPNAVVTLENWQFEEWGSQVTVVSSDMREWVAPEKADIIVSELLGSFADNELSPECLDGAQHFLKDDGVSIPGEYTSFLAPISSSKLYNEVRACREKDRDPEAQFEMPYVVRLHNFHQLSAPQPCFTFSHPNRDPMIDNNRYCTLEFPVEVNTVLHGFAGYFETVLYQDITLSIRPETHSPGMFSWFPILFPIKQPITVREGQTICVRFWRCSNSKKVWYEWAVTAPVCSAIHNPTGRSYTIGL
Full-length PRMT5 enzyme co-expressed with MEP50, sequence (Q9BQA1 whole entry partner): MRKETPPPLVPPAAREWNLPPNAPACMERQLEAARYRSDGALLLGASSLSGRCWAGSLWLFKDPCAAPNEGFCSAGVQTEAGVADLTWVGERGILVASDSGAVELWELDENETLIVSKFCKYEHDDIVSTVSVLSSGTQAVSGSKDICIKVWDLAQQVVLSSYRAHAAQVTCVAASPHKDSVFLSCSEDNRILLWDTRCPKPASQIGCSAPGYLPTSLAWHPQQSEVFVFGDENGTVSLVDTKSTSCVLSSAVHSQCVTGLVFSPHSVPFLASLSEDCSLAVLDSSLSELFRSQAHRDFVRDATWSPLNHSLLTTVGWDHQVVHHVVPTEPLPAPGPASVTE

SMILES	pIC50
O=C(NC[C@@H](O)CNC1Cc2ccccc2C1)c1ccc(C(=O)N2CCC(CO)CC2)cc1 [Compound 61, (S)-N-(3-((2,3-dihydro-1H-inden-2-yl)amino)-2-hydroxypropyl)-4-(4-(hydroxymethyl)piperidine-1-carbonyl)benzamide]	6.74
O=C(NC[C@@H](O)CNC1Cc2ccccc2C1)c1cccc(C(=O)N2CCOCC2)c1 [Compound 62, (S)-N-(3-((2,3-dihydro-1H-inden-2-yl)amino)-2-hydroxypropyl)-3-(morpholine-4-carbonyl)benzamide]	5.16
O=C(NCC(O)CNC1Cc2ccccc2C1)c1ccc(N2CCCCC2=O)cc1 (stereo not drawn) [Compound 63, N-(3-((2,3-Dihydro-1H-inden-2-yl)amino)-2-hydroxypropyl)-4-(2-oxopiperidin-1-yl)benzamide]	5.14
CC(=O)N1CCC(Nc2ccc(C(=O)NCC(O)CNC3Cc4ccccc4C3)cc2)CC1 (stereo not drawn) [Compound 64, 4-((1-Acetylpiperidin-4-yl)amino)-N-(3-((2,3-dihydro-1H-inden-2-yl)amino)-2-hydroxypropyl) benzamide]	5.96
O=C(NC[C@@H](O)CNC1Cc2ccccc2C1)c1ccc(C(=O)N2CCS(=O)(=O)CC2)cc1 [Compound 65, (S)—N-(3-((2,3-dihydro-1H-inden-2-yl)amino)-2-hydroxypropyl)-4-(1,1-dioxidothiomorpholine-4-carbonyl)benzamide]	5.89
O=C(NC[C@@H](O)CNC1Cc2ccccc2C1)c1ccc(C(=O)N2CC3(COC3)C2)cc1 [Compound 66, (S)-N-(3-((2,3-dihydro-1H-inden-2-yl)amino)-2-hydroxypropyl)-4-(2-oxa-6-azaspiro[3.3]heptane-6-carbonyl)benzamide]	5.81
O=C(NC[C@@H](O)CNC1Cc2ccccc2C1)c1ccc(C(=O)N2CCCCC2)nc1 [Compound 68, (S)-N-(3-((2,3-dihydro-1H-inden-2-yl)amino)-2-hydroxypropyl)-6-(piperidine-1-carbonyl)nicotinamide]	5.21
O=C(NC[C@H](O)CNC1Cc2ccccc2C1)c1ccc(C(=O)N2CCCCC2)nc1 [Compound 69, (R)-N-(3-((2,3-dihydro-1H-inden-2-yl)amino)-2-hydroxypropyl)-6-(piperidine-1-carbonyl)nicotinamide]	5.00
CC[C@@H]1COCCN1C(=O)c1ccc(C(=O)NC[C@@H](O)CNC2Cc3ccccc3C2)cc1 [Compound 71, N-((S)-3-((2,3-dihydro-1H-inden-2-yl)amino)-2-hydroxypropyl)-4-((R)-3-ethylmorpholine-4-carbonyl)benzamide]	6.63
CC1(C)CN(C(=O)c2ccc(C(=O)NC[C@@H](O)CNC3Cc4ccccc4C3)cc2)CCO1 [Compound 72, (S)-N-(3-((2,3-dihydro-1H-inden-2-yl)amino)-2-hydroxypropyl)-4-(2,2-dimethylmorpholine-4-carbonyl)benzamide]	6.47
O=C(NC[C@@H](O)CNC1Cc2ccccc2C1)c1ccc(CC(=O)N2CCCCC2)nc1 [Compound 78, (S)-N-(3-((2,3-dihydro-1H-inden-2-yl)amino)-2-hydroxypropyl)-6-(2-oxo-2-(piperidin-1-yl)ethyl)nicotinamide]	5.25
COCC1CCCCN1C(=O)c1ccc(C(=O)NC[C@@H](O)CNC2Cc3ccccc3C2)cc1 (stereo partly drawn) [Compound 80, N-((S)-3-((2,3-dihydro-1H-inden-2-yl)amino)-2-hydroxypropyl)-4-(2-(methoxymethyl)piperidine-1-carbonyl)benzamide]	6.60
COC1CCN(C(=O)c2ccc(C(=O)NC[C@@H](O)CNC3Cc4ccccc4C3)cc2)C1 (stereo partly drawn) [Compound 81, N-((S)-3-((2,3-dihydro-1H-inden-2-yl)amino)-2-hydroxypropyl)-4-(3-methoxypyrrolidine-1-carbonyl)benzamide]	5.86
COC1CCN(C(=O)c2ccc(C(=O)NC[C@@H](O)CNC3Cc4ccccc4C3)cc2)CC1 [Compound 86, (S)-N-(3-((2,3-dihydro-1H-inden-2-yl)amino)-2-hydroxypropyl)-4-(4-methoxypiperidine-1-carbonyl)benzamide]	6.17
COc1cc(CC(=O)N2CCOCC2)ccc1C(=O)NC[C@@H](O)CNC1Cc2ccccc2C1 [Compound 87, (S)-N-(3-((2,3-dihydro-1H-inden-2-yl)amino)-2-hydroxypropyl)-2-methoxy-4-(2-morpholino-2-oxoethyl)benzamide]	5.56
O=C(NC[C@@H](O)CNC1Cc2ccccc2C1)c1ccc(C(=O)N2CCC3(CCO3)CC2)cc1 [Compound 88, (S)-N-(3-((2,3-dihydro-1H-inden-2-yl)amino)-2-hydroxypropyl)-4-(1-oxa-7-azaspiro[3.5]nonane-7-carbonyl)benzamide]	6.64
COC(=O)Cc1ccc(C(=O)NC[C@@H](O)CNC2Cc3ccccc3C2)cc1 [Compound 89, (S)-methyl 2-(4-((3-((2,3-dihydro-1H-inden-2-yl)amino)-2-hydroxypropyl)carbamoyl)phenyl)acetate]	6.07
O=C(NC[C@@H](O)CNC1Cc2ccccc2C1)c1ccc(CC(=O)N2CCOCC2)cc1 [Compound 90, (S)-N-(3-((2,3-dihydro-1H-inden-2-yl)amino)-2-hydroxypropyl)-4-(2-morpholino-2-oxoethyl)benzamide]	5.50
O=C(NC[C@H](O)CNC1Cc2ccccc2C1)c1ccc(CC(=O)N2CCCC2)cc1 [Compound 91, (R)-N-(3-((2,3-dihydro-1H-inden-2-yl)amino)-2-hydroxypropyl)-4-(2-oxo-2-(pyrrolidin-1-yl)ethyl)benzamide]	5.91
O=C(NC[C@@H](O)CNC1Cc2ccccc2C1)c1ccc(CC(=O)N2CCCC2)cc1 [Compound 100, (S)-N-(3-((2,3-dihydro-1H-inden-2-yl)amino)-2-hydroxypropyl)-4-(2-oxo-2-(pyrrolidin-1-yl)ethyl)benzamide]	5.96
CC1(C)COCCN1C(=O)c1ccc(C(=O)NC[C@@H](O)CNC2Cc3ccccc3C2)cc1 [Compound 102, (S)-N-(3-((2,3-dihydro-1H-inden-2-yl)amino)-2-hydroxypropyl)-4-(3,3-dimethylmorpholine-4-carbonyl)benzamide]	6.32
O=C(NC[C@@H](O)CNC1Cc2ccccc2C1)c1ccc(C(=O)N2CCOCC23CCC3)cc1 [Compound 104, (S)-N-(3-((2,3-dihydro-1H-inden-2-yl)amino)-2-hydroxypropyl)-4-(8-oxa-5-azaspiro[3.5]nonane-5-carbonyl)benzamide]	6.29
NC(CNC(=O)c1ccc(C(=O)N2C3CCC2COC3)cc1)CNC1Cc2ccccc2C1 (stereo not drawn) [Compound 106, N-(2-Amino-3-((2,3-dihydro-1H-inden-2-yl)amino)propyl)-4-(3-oxa-8-azabicyclo[3.2.1]octane-8-carbonyl)benzamide]	4.62
NC(=O)C(CNC(=O)c1ccc(C(=O)N2CCOCC2)cc1)CNC1Cc2ccccc2C1 (stereo not drawn) [Compound 107, N-(3-Amino-2-(((2,3-dihydro-1H-inden-2-yl)amino)methyl)-3-oxopropyl)-4-(morpholine-4-carbonyl)benzamide]	4.28
O=C(NCC(CO)CNC1Cc2ccccc2C1)c1ccc(C(=O)N2CCOCC2)cc1 (stereo not drawn) [Compound 108, N-(3-((2,3-Dihydro-1H-inden-2-yl)amino)-2-(hydroxymethyl)propyl)-4-(morpholine-4-carbonyl)benzamide]	4.67
CS(=O)(=O)N1CC(Nc2cc(C(=O)NC[C@@H](O)CNC3Cc4ccccc4C3)ccn2)C1 [Compound 109, (S)—N-(3-((2,3-Dihydro-1H-inden-2-yl)amino)-2-hydroxypropyl)-2-((1-(methylsulfonyl)azetidin-3-yl)amino)isonicotinamide bis 2,2,2-trifluoroacetic acid salt]	4.95
CC(=O)N1CC(Nc2cc(C(=O)NC[C@@H](O)CNC3Cc4ccccc4C3)ccn2)C1 [Compound 110, (S)-2-((1-Acetylazetidin-3-yl)amino)-N-(3-((2,3-dihydro-1H-inden-2-yl)amino)-2-hydroxypropyl)isonicotinamide bis 2,2,2-trifluoroacetic acid salt]	6.78
CN(C[C@H](O)CNC(=O)c1ccc(C(=O)N2CCOCC2)cc1)C1Cc2ccccc2C1 [Compound 112, (R)—N-(3-((2,3-Dihydro-1H-inden-2-yl)(methyl)amino)-2-hydroxypropyl)-4-(morpholine-4-carbonyl)benzamide]	5.03
O=C(NC[C@@H](O)CNC1Cc2ccccc2C1)c1cccc2ncsc12 [Compound 113, (S)-N-(3-((2,3-dihydro-1H-inden-2-yl)amino)-2-hydroxypropyl) benzo[d]thiazole-7-carboxamide]	5.38
CCOc1nc(C(=O)N2C3CCC2COC3)ccc1C(=O)NC[C@@H](O)CNC1Cc2ccccc2C1 [Compound 115, 6-(3-oxa-8-azabicyclo[3.2.1]octane-8-carbonyl)-N-((S)-3-((2,3-dihydro-1H-inden-2-yl)amino)-2-hydroxypropyl)-2-ethoxynicotinamide]	6.52
